# Active and inactive are the calls of the source. No cut-off for these calls is given here.
# Assays:
# [1] = tested on: Rhesus monkey; experiment: Effect on physical dependence capacity in morphine-dependent rhesus monkey at 20 mg/kg by single-dose suppression test; format: functional, organism-based; parameters: dose 20 mg/kg; settings: Macaca mulatta
# [2] = molecular target: Opioid receptor (Rattus norvegicus, UniProt P33533+P34975+P33535); experiment: Displacement of radiolabeled dihydromorphine from opioid receptor in rat brain homogenates; format: tissue-based
# [3] = tested on: Mus musculus; experiment: Analgesic activity in sc dosed mouse by hot plate assay; format: functional
# [4] = tested on: Rhesus monkey; experiment: Effect on physical dependence capacity in morphine-dependent rhesus monkey assessed as partial suppression of abstinence signs at 20 to 40 mg/kg by single-dose suppression test; format: functional, organism-based; settings: Macaca mulatta
# [5] = species on record: Mus musculus; experiment: Analgesic activity in mouse by Nilsen assay; format: functional
# [6] = species on record: Mus musculus; experiment: (§1) Analgesic activity in mouse by tail flick assay; format: functional
# [7] = species on record: Mus musculus; experiment: Analgesic activity in mouse assessed as inhibition of PPQ-induced writhing; format: functional
# [8] = tested on: Rhesus monkey; experiment: Effect on physical dependence capacity in morphine-dependent rhesus monkey at 1.2 mg/kg by single-dose suppression test; format: functional, organism-based; parameters: dose 1.2 mg/kg; settings: Macaca mulatta
# [9] = species on record: Mus musculus; experiment: as §1; format: functional, organism-based
# [10] = tested on: Rhesus monkey; experiment: Effect on physical dependence capacity in morphine-dependent rhesus monkey up to 16 mg/kg by single-dose suppression test; format: functional, organism-based; parameters: dose 16 mg/kg; settings: Macaca mulatta
SMILES,EC50 [2],ED50 [3],further results
CCOC(=O)C1(c2ccccc2)CCN(CCC#N)CC1,8000 nM,100 mg/kg,Activity [1]: inactive
CCC(=O)C1(c2cccc(O)c2)CCN(CCC#N)CC1,1500 nM,–,Activity [4]: Active; ED50 [5]: > 50 mg/kg
CC[C@H]1C2Cc3ccc(O)cc3[C@@]1(C)CCN2C (mixture of isomers),15 nM,1.3 mg/kg,ED50 [6]: 6.4 mg/kg; ED50 [7]: 0.2 mg/kg; Activity [8]: Active
CC[C@H]1C2Cc3ccc(O)cc3[C@@]1(C)CCN2CCC#N (mixture of isomers),4 nM,0.21 mg/kg,inhibition [9]: inactive; ED50 [6]: 0.8 mg/kg; ED50 [7]: 0.09 mg/kg; Activity [8]: Active
CC[C@H]1C2Cc3ccc(O)cc3[C@@]1(C)CCN2CCC(N)=O (mixture of isomers),9 nM,19.3 mg/kg,Activity [10]: inactive; inhibition [9]: inactive; Activity [6]: inactive; inhibition [7]: inactive
CC1C2Cc3ccc(O)cc3C1(C)CCN2C (racemic),9 nM,1.18 mg/kg,–
CCC(=O)C1(c2cccc(O)c2)CCN(C)CC1 [KETOBEMIDONE],2 nM,0.8 mg/kg,–
CCOC(=O)C1(c2ccccc2)CCN(C)CC1 [MEPERIDINE],–,4.7 mg/kg,–
CN1CC[C@]23c4c5ccc(O)c4O[C@H]2[C@@H](O)C=C[C@H]3[C@H]1C5 [MORPHINE],–,1.2 mg/kg,–

# Source: ChEMBL document CHEMBL3228040 (J Med Chem, 1979)
